{"source": "paper PMC4705983", "about": "“Structural Dissection of the Maltodextrin Disproportionation Cycle of the Arabidopsis Plastidial Disproportionating Enzyme 1 (DPE1)” (The Journal of Biological Chemistry, 2015)", "key": {"[1]": {"target": "T1, AtDPE1 (disproportionating enzyme 1) (Arabidopsis thaliana, UniProt Q9LV91)", "T1 construct": "gene DPE1; residues 46-576, transit peptide removed, N-terminal His6 tag kept (pET151/D-TOPO), homodimer", "T1 sequence (Q9LV91 46-576)": "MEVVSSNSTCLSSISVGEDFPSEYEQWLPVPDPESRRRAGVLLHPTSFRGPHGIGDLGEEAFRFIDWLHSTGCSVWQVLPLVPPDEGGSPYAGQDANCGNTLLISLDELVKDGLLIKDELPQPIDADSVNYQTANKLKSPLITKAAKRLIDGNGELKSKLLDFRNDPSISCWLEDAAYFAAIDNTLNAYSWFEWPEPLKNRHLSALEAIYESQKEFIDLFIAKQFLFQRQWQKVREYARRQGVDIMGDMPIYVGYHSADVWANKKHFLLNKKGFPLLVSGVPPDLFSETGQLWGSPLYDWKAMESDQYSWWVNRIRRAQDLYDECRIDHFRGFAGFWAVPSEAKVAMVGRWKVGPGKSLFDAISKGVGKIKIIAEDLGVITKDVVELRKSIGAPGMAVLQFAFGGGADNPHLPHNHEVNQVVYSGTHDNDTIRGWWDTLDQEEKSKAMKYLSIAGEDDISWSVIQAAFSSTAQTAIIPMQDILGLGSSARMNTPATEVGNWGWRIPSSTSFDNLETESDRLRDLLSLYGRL", "experiment": "X-ray crystallography, crystal soak", "assay_type": "biochemical", "settings": "covalent; 10 mM soak, pH 8.0; only the maltosyl unit (subsites -2, -1) linked to Asp-373 seen, from slow cleavage; 2.30 Å"}, "[2]": {"target": "T1, AtDPE1 (disproportionating enzyme 1)", "experiment": "turnover in crystal (transglycosylation during soak), X-ray crystallography", "assay_type": "biochemical", "settings": "10 mM soak, pH 8.0; intact maltotriose not seen, longer malto-oligosaccharide bound"}}}
{"smiles": "OC[C@H]1O[C@@H]2O[C@H]3[C@H](O)[C@@H](O)[C@@H](O[C@H]4[C@H](O)[C@@H](O)[C@@H](O[C@H]5[C@H](O)[C@@H](O)[C@@H](O[C@H]6[C@H](O)[C@@H](O)[C@@H](O[C@H]7[C@H](O)[C@@H](O)[C@@H](O[C@H]8[C@H](O)[C@@H](O)[C@@H](O[C@H]1[C@H](O)[C@H]2O)O[C@@H]8CO)O[C@@H]7CO)O[C@@H]6CO)O[C@@H]5CO)O[C@@H]4CO)O[C@@H]3CO", "note": "[BCD, β-cyclodextrin]", "values": [{"measurement": "X-ray crystallography, crystal soak", "setting": "[1]", "result": "The covalently bound donor most likely resulted from a slow hydrolysis of β-cyclodextrin"}]}
{"smiles": "OC[C@H]1O[C@H](O[C@H]2[C@H](O)[C@@H](O)[C@@H](O[C@H]3[C@H](O)[C@@H](O)C(O)O[C@@H]3CO)O[C@@H]2CO)[C@H](O)[C@@H](O)[C@@H]1O", "note": "(some centres unmarked) [MA3, maltotriose]", "values": [{"measurement": "turnover in crystal (transglycosylation during soak), X-ray crystallography", "setting": "[2]", "result": "malto-oligosaccharide in each active site, indicative of transglycosylation reactions occurring during crystal soaking"}]}
